From patent US20150065556A1, “THERAPEUTIC TARGETS FOR MITOCHONDRIAL DISORDERS” (Whitehead Institute for Biomedical Research, priority 2013, published 2015)
“Also recorded” adds a separate entry of the source.

Assays:
[1] = system: KBM7 cells; assay: Viability/proliferation of wild type and ATPIF1 null KBM7 cells treated with mitochondrial poisons (7-AAD, FACS); format: cell-based, human; settings: for resistance of ATPIF1 null KBM7 cells to the poison: viability four days later, FIG. 1C-D, FIG. 2; for viability of ATPIF1 KO vs WT KBM7 cells in response to ETC inhibitors: 7AAD, FIG. 8A
From the text: In order to identify potential drug targets for treatment of mitochondrial disorders, we decided to use inhibitors of oxidative phosphorylation (OXPHOS) to model mitochondrial diseases and search for genes, loss-of-function of which can confer resistance to mitochondrial dysfunction caused by the poison. To that end, we explored use of a screening platform based on gene inactivation in human cells using insertional mutagenesis that has recently been developed using the KBM7 CML cell line, which is haploid for all chromosomes except chromosome 8 (5). In this system, insertional mutagenesis is accomplished using a gene trap vector. […]
For the viability assays described in this Example and Example 2, 200,000 cells were used for each sample. Cells were treated with the desired concentration of drug and viability was assessed four days later using 7-AAD and FACS analysis.
(§1) Suspension cells were kept on ice, then spun at 4000 rpm for 5 minutes at 4° C. in a table-top microcentrifuge, supernatant aspirated, cells washed once with ice-cold PBS, resuspended in ice-cold PBS with 2 ug/mL 7-AAD viability dye, incubated for 5 minutes on ice, and analyzed by FACS. For adherent cells, the overlying media and PBS used for pre-trypsinization washes was collected and combined with the suspension of trypsinized cells to gather any dead cells that may have detached into the media. The cell suspensions were kept on ice, spun at 1500 rpm for 5 minutes at 4° C. in a swinging bucket centrifuge, supernatant aspirated, cells washed once with ice-cold PBS, resuspended in ice-cold PBS with 2 ug/mL 7-AAD viability dye, incubated for 5 minutes on ice, and analyzed by FACS. Viability was assessed by 7-AAD exclusion. For HeLa, SH-SY5Y, and Malme-3M cells, 500-2,000 cells were seeded per well of white, clear-bottom 96-well plates (Greiner Bio-One), treated with drugs, and then analyzed using CellTiter-Glo according to the manufacturer's instructions (Promega). For primary hepatocytes, 100,000 cells were seeded per well of a 24-well TPP plate (Light Labs), treated with antimycin, and then analyzed using CellTiter-Glo.

[2] = system: KBM7 cells; assay: ddI-induced mtDNA depletion in WT and IF1 KO KBM7 cells (proliferation, mtDNA copy number, ATPIF1 protein); format: cell-based, human
From the text: mtDNA was extracted using a QiaAmp DNA Mini Kit (Qiagen) and primers specific to the mitochondrial gene ND1 and the nuclear gene Actb were used in conjunction with a SyBr Green Kit (AB) according to the manufacturer's instructions. The ratio of ND1 copies to Actb copies was used to assess the relative mtDNA/nuclear DNA copy numbers between different samples. In some experiments primers targeting the mitochondrial gene ND1 and the nuclear gene RUNX2 were used to assess mtDNA copy number by normalizing ct values of ND1 to those of RUNX2: ND1_F, CCCTAAAACCCGCCACATCT (SEQ ID NO. 14); ND1_R, GAGCGATGGTGAGAGCTAAGGT (SEQ ID NO. 15); RUNX2_F, CGCATTCCTCATCCCAGTATG (SEQ ID NO. 16); RUNX2_R, AAAGGACTTGGTGCAGAGTTCAG (SEQ ID NO. 17). Relative differences between samples were determined using the comparative Ct method.
KBM7 cells were cultured in IMDM supplemented with 10% IFS and penicillin/streptomycin, except for studies using tigecycline in which they were cultured in RPMI-1640. SH-SY5Y, HeLa, Malme-3M cells were cultured in DMEM supplemented with 10% FBS and penicillin/streptomycin. HeLa WT, HeLa ρ^0, and KBM7 cells used for ddI experiments were grown in DMEM supplemented with 10% FBS, penicillin/streptomycin, and 100 μg/mL uridine. Primary hepatocytes were cultured in Medium 199 supplemented with 10% FBS, penicillin/streptomycin, and GlutaMAX. KBM7, HeLa WT, and HeLa ρ^0 cells stably overexpressing ATPIF1 (WT or E55A) were generated via infection with retroviruses and selected with blasticidin (10 μg/mL) for three days. Malme-3M cells stably overexpressing RAP2A or ATPIF1 were generated by infection with lentiviruses expressing the corresponding cDNAs, followed by selection with puromycin (2 μg/mL) for three days. KBM7, SH-SY5Y, and HeLa cells expressing shLuc or shATPIF1 were generated by infection with lentiviruses expressing the corresponding shRNAs. All cells were infected with spin-infection using a 30 minute spin at 2,250 rpm in media containing polybrene (4 μg/mL), followed by selection one day later.
Failure to maintain proper amounts of the mitochondrial genome is a distinctive feature of a class of severe respiratory chain disorders known as mtDNA depletion syndromes (Lee and Sokol, 2007). Because of our interest in ATPIF1 inhibition as a potential strategy for ameliorating severe ETC dysfunction, we asked if loss of ATPIF1 alone was sufficient to improve cell viability during progressive mtDNA depletion. To do this, we exposed WT and IF1 KO KBM7 cells for 50 days to the drug 2′,3′-dideoxyinosine (ddI), an inhibitor of mtDNA replication, which depletes cells of their mtDNA (Lewis et al., 2003; Walker et al., 2002).

[3] = system: KBM7 cells; assay: Mitochondrial membrane potential (TMRM staining, FACS) in WT and ATPIF1 KO KBM7 cells; format: cell-based, human; settings: for rescue by loss of ATPIF1 of the loss of mitochondrial membrane potential caused by the poison: FIG. 4, TMRM
Procedure: Membrane potential was assessed using tetramethyl rhodamine methyl ester (TMRM). For the TMRM time course: 200,000 cells were used for each time point. Cells were treated with 121 uM antimycin and incubated in 25 nM TMRM (final concentration) in IMDM 20 minutes from the end of their time point at 37° C. and then analyzed by FACS analysis. Dead cells were excluded using 7-AAD.
(§2) 200,000 cells were stained with 25 nM TMRM dye (Invitrogen) in parent media of cells. In the case of adherent cells, 10 uM verapamil (Sigma-Aldrich) was added to help retention of the dye. For suspension cells, the incubation of the dye was done for 30 minutes at 37° C., whereas for adherent cells, the incubation was done for 1 hour at 37° C. Suspension cells were kept on ice, then spun at 4000 rpm for 5 minutes at 4° C. in a table-top microcentrifuge, supernatant aspirated, cells washed once with ice-cold PBS, resuspended in ice-cold PBS with 2 ug/mL 7-AAD viability dye, incubated for 5 minutes on ice, and analyzed by FACS. Only 7-AAD negative live cells were analyzed. Adherent cells were first trypsinized, kept on ice, spun at 4000 rpm for 5 minutes at 4° C. in a table-top microcentrifuge, supernatant aspirated, cells washed once with ice-cold PBS, resuspended in ice-cold PBS with 2 ug/mL 7-AAD viability dye, incubated for 5 minutes on ice, and analyzed by FACS. Only 7-AAD negative live cells were analyzed.
(§3) FACS assays. For measurements of ΔΨm, 100,000 cells were incubated with TMRM (25 nM) and the indicated amounts of drugs for the indicated amounts of time before collection. For measurements of mitochondrial mass, 100,000 cells were incubated with MitoTracker Green FM (50 nM) for one hour. For primary hepatocytes, cells were assayed in suspension immediately after harvest from the liver and incubated with verapamil (20 μM) to facilitate retention of TMRM and MitoTracker Green FM signals. Afterwards, cells were collected by centrifugation, washed once with PBS, and resuspended in PBS with 7-AAD (2 μg/mL) for analysis. KBM7 cells and primary hepatocytes were centrifuged at 2000 rpm for 5 minutes and 500 rpm for 5 minutes at 4° C., respectively.

[4] = system: KBM7 cells; assay: Cellular ATP (CellTiterGlo) in WT and ATPIF1 KO KBM7 cells; format: cell-based, human
Procedure: (§4) Equal numbers of cells were plated and ATP was determined using a CellTiterGlo assay (Promega) according to the manufacturer's instructions.

[5] = system: COX1 mutant cells; assay: MMP and viability of cybrid cells with mtDNA from a patient with a deficiency in COX1; format: cell-based, human; settings: FIG. 7E
Procedure: as §2
(§5) Suspension cells were kept on ice, then spun at 4000 rpm for 5 minutes at 4° C. in a table-top microcentrifuge, supernatant aspirated, cells washed once with ice-cold PBS, resuspended in ice-cold PBS with 2 ug/mL 7-AAD viability dye, incubated for 5 minutes on ice, and analyzed by FACS. […] Viability was assessed by 7-AAD exclusion. […]

[6] = system: cybrid cells having mtDNA derived from a normal (WT) subject; assay: MMP and viability of cybrid cells with mtDNA from a normal (WT) subject; format: cell-based, human; settings: FIG. 7E
Procedure: as §2, §5

[7] = system: KBM7 cells; assay: Metabolite profiling of WT and IF1 KO KBM7 cells after antimycin treatment; format: cell-based, human; settings: after 1 hour of antimycin treatment; FIG. 7D as printed
Procedure: 4 million KBM7 cells were centrifuged at 1500 rpm for 4 minutes at 4° C. in a swinging bucket centrifuge after the desired drug treatments. The supernatant was decanted and the cell pellet kept on dry ice. Each cell pellet was washed twice with ice-cold PBS. 3 mL of 80% ice-cold MeOH was then added to each pellet and the pellet vigorously resuspended. Samples were then submitted to the Broad Institute Metabolomics Platform for further processing and analysis.

[8] = system: Malme-3M cells; assay: Viability of Malme-3M cells overexpressing ATPIF1 treated with antimycin (CellTiter-Glo); format: cell-based; settings: antimycin for 4 days; FIG. 7G
Procedure: as §1, with “CellTiter-Glo. […]” for “CellTiter-Glo.”

[9] = system: primary hepatocytes; assay: ATP, ΔΨm and viability of WT and ATPIF1−/− primary hepatocytes treated with antimycin; format: cell-based, mice
Procedure: as §4, §1
as §3, with “KBM7 cells and primary hepatocytes were centrifuged at 2000 rpm for 5 minutes and 500 rpm for 5 minutes at 4° C., respectively.” left out

[10] = initial days of ddI treatment (Early)

N#CC(C#N)=NNc1ccc(OC(F)(F)F)cc1 [FCCP, carbonylcyanide p-trifluoromethoxyphenylhydrazone]
resistance of ATPIF1 null KBM7 cells to the poison ([1]; 7-AAD): resistant

C[n+]1ccc(-c2ccccc2)cc1 [MPP+, 1-methyl-4-phenylpyridinium]
viability of ATPIF1 KO vs WT KBM7 cells in response to ETC inhibitors [1]: cells lacking ATPIF1 have increased viability as compared to wild type cells

O=C(CC(=O)C(F)(F)F)c1cccs1 [TTFA]
resistance of ATPIF1 null KBM7 cells to the poison ([1]; 7-AAD): resistant

OC[C@@H]1CC[C@H](n2cnc3c(O)ncnc32)O1 [ddI, 2′,3′-dideoxyinosine]
mtDNA of WT and ATPIF1_KO KBM7 cells ([2]; by about day 25 of ddI treatment (Middle)): trace amounts of mtDNA | proliferation of ATPIF1_KO vs WT KBM7 cells ([2]; ddI, Middle (days 19-34)): significantly faster rate of proliferation | cell proliferation of WT and ATPIF1_KO KBM7 cells [2, 10]: decrease in cell proliferation | mtDNA copy number of WT and ATPIF1_KO KBM7 cells [2, 10]: immediate decrease in mtDNA copy number | ATPIF1 protein levels and activity of WT KBM7 cells ([2]; long-term exposure to ddI, FIG. 8E): greatly reduced ATPIF1 protein levels and activity

CC[C@H]1/C=C/C=C/C[C@@H](C)[C@H](O)[C@@](C)(O)C(=O)[C@@H](C)[C@H](O)[C@@H](C)C(=O)[C@@H](C)[C@H](O)[C@@H](C)/C=C/C(=O)O[C@@H]2[C@H](C)[C@H](CC1)O[C@]1(CC[C@H](C)[C@H](C[C@@H](C)O)O1)[C@H]2C [oligomycin]
survival of antimycin-treated IF1 KO KBM7 cells on addition of oligomycin ([1]; oligomycin added to antimycin, 7-AAD, FIG. 7D): decreased survival | rescue by loss of ATPIF1 of the loss of mitochondrial membrane potential caused by the poison [3]: not rescued | MMP (ΔΨm) of antimycin-treated IF1 KO KBM7 cells on addition of oligomycin ([3]; oligomycin added to antimycin): completely prevents IF1 KO cells from rescuing their MMP; also recorded: decreased ΔΨm | ATP of antimycin-treated IF1 KO KBM7 cells on addition of oligomycin ([4]; oligomycin added to antimycin): completely prevents IF1 KO cells from rescuing their MMP and using ATP; also recorded: increased ATP levels | MMP of cells having patient-derived (COX1 deficient) mtDNA [5]: dramatic decrease in MMP | viability of cells having patient-derived (COX1 deficient) mtDNA [5]: kills the cells having patient-derived mtDNA | MMP and viability of cells having mtDNA derived from healthy subjects (WT) [6]: not cells having mtDNA derived from healthy subjects

C/C=C(\C)[C@H](O)[C@H](C)/C=C(C)/C=C/C/C(C)=C/Cc1nc(OC)c(OC)c(O)c1C [piercidin A, Piericidin A]
viability of ATPIF1 KO vs WT KBM7 cells in response to ETC inhibitors [1]: cells lacking ATPIF1 have increased viability as compared to wild type cells | resistance of ATPIF1 null KBM7 cells to the poison ([1]; 7-AAD): resistant

CN(C)c1cc(NC(=O)CNC(C)(C)C)c(O)c2c1C[C@H]1C[C@H]3[C@H](N(C)C)C(O)=C(C(N)=O)C(=O)[C@@]3(O)C(O)=C1C2=O [tigecycline]
viability of ATPIF1 KO vs WT KBM7 cells in response to ETC inhibitors [1]: cells lacking ATPIF1 have increased viability as compared to wild type cells

antimycin A
proliferation of clone 18 (ATPIF1 null) KBM7 cells ([1]; antimycin A 121 μm, FIG. 1D): clone 18 cells continue proliferating | proliferation of wild type KBM7 cells ([1]; antimycin A 121 μm, FIG. 1D): wild type cells cease proliferating | resistance of ATPIF1 null KBM7 cells to the poison ([1]; 7-AAD): marked resistance | rescue by loss of ATPIF1 of the loss of mitochondrial membrane potential caused by the poison [3]: rescued (in part) | MMP in IF1 KO KBM7 cells ([3]; antimycin exposure, FIG. 7B): significant recovery in MMP after loss of MMP | recovery of MMP in WT KBM7 cells ([3]; antimycin exposure, FIG. 7B): WT cells did not | ATP levels of ATPIF1 null vs WT KBM7 cells following antimycin treatment ([4]; FIG. 3A): significantly lower levels of initial ATP compared to WT cells | ATP levels in IF1 KO KBM7 cells ([4]; antimycin exposure, FIG. 7B): decreased significantly | ATP levels in WT KBM7 cells ([4]; antimycin exposure, FIG. 7B): not in WT cells | glycolytic metabolites (DHAP, glyceraldehyde 3P, F6P), IF1 KO vs WT KBM7 cells [7]: more depletion of glycolytic metabolites | sensitivity of Malme-3M cells overexpressing ATPIF1 [8]: increased their sensitivity to antimycin | cellular ATP, ATPIF1−/− vs WT hepatocytes ([9]; antimycin 0.625 μM for 1.5 hours, FIG. 11B): greater decrease in cellular ATP | cell viability, ATPIF1−/− vs WT hepatocytes ([9]; antimycin 1.25 μM for 2 days, FIG. 11D): increased cell viability relative to WT hepatocytes | ΔΨm, ATPIF1−/− vs WT hepatocytes ([9]; antimycin 10 μM for 1.5 hours, FIG. 11C): greater increase in ΔΨm
